Results published in patent US12194021B2, “Modified herbal compositions for neuromodulation” (University of Southern California, priority 2021, dated 2025).

Tests used:
Format in all cases: in vivo
TG-mice [1] = test: Novel Object Recognition (NOR); conditions: 1 mg/kg oral in 2% sucrose, 3 months, untreated TG 51.2±3.6%, wt 68.9±6.8%
Experimental: 4) Memory Test Protocol. Novel Object Recognition (NOR): Day 1-3: Habituation (once/day). Top open containers (open field) were used with video camera to record animal behavior. An animal was put into a container with no objects for 5 min. Context remained the same for each animal.
Day 4, Familiarization: Two identical objects (toys-FO: familiar object) were put into the container at specific positions. Then animals were put into the container to explore the objects for 5 min. Retention Trial 1.5 h: Each animal was placed in its home cage for 1.5 h after the familiarization. One of the toys was replaced with a new toy (NO, novel object and very different from FO). […]
Day 5, Retention Trial 24 h: We placed another new toy (NO) along with an original object (FO) in the container. […] We scored the animal behavior offline according to how long the animal spent exploring each object. The Object Recognition Index (ORI) was calculated, such that ORI=(tn−tf)/(tn+tf), where tf and tn represent times of exploring the familiar and novel objects, respectively.
Mice were divided into four groups: (1) C57BL/6 wt male mice were treated with oral administration of 2% sucrose; (2) C57B1/6 wt male mice with oral administration of 1 mg/kg D-P in 2% sucrose; (3) TG-mice with oral administration of 2% sucrose; and (4) TG-mice with 1 mg/kg D-P in 2% sucrose. […] Next, we evaluated NCR (FIG. 3C). The RI was calculated.

TG-mice [2] = test: Elevated plus maze (EPM), anxiety in TG-mice; conditions: 2 mg/kg, 3 months
Text: 2) Whole-Cell Patch-Clamp Recordings from Brain Slices. Transverse slices (400 lm) of dorsal hippocampus were obtained from wt and TG-SwDI mice (male, 20 months old) using a vibratome (VT 100; Technical Products International). Slices were perfused continuously with artificial CSF (ACSF) composed of the following (in mM): 125 NaCl, 2.5 KCl, 2 CaCl2, 2 MgCl2, 26 NaHCO3, and 10 D-glucose. The ACSF was bubbled continuously with 95% O2/5% CO2 to ensure adequate oxygenation of slices and a pH of 7.4 and kept at 34±0.5° C. for perfusion. TTX (0.5 μM), APV (40 μM), CNQX (10 μM), and CGP54626 (1 μM, GABABR antagonist) were added to ACSF to pharmacologically isolate GABAAR-mediated mIPSCs. […] Animals were placed on the central area of the maze, tested for 5 min and video recorded. The following measures were scored: number of entries into open arms, closed arms, or center platform and time spent in each of these areas. […]
6) The elevated plus maze assay (EPM) was performed in a quiet and dark room with only a low power red light. […] were placed on the central area of the maze, and their behavior video recorded for 5 min. The number of entries into open arms, closed arms, or center platform and time spent in each of these areas were scored during off-line analysis. […]
Locomotor activity was assayed with open field test. Running distance is one of the parameters quantifying locomotor activity (FIG. 4A). […]

gephyrin = test: Gephyrin level measurement (Western blot, hippocampus and cortex); conditions: TG-mice, 1 mg/kg oral daily
Experimental: 3) Gephyrin level measurement: Gephyrin amounts in control (group housing), AD, and AD+D-P group were determined. All mice brains were taken and prepared for assays. SDS-PAGE and Western blot analysis. Proteins were separated on SDS-polyacrylamide gels (Sigma) using the Bio-Rad Mini-Protean 3 cell system. Proteins were transferred on a polyvinylidene difluoride (PDVF) membrane (Sigma) and blocked with 4% non-fat dry milk. Blots were incubated overnight at 4° C. with rabbit anti-gephyrin (Santa Cruz, 1:200) and mouse anti-β-actin (Sigma, 1:1000), followed by HRP-conjugated secondary antibodies (1:5000) for two hours at room temperature. Bands were detected using ECL detection kit (Sigma) and exposed to X-ray films. Bands were analyzed by densitometry using ImageQuant5.2 (Molecular Dynamics), normalized to the corresponding β-actin signal and compared.
Gephyrin is the key scaffolding protein that organizes the inhibitory postsynaptic receptor density involving GABAAR clustering at postsynaptic sites. Gephyrin not only has a structural function at GABAergic synaptic sites, but also plays a crucial role in synaptic dynamics. Therefore, we examined the protein levels of gephyrin in the hippocampus (left) and cortex (right) in the TG-mice and in D-P treated TG-mice compared to wt control. […]

## piperidin-1-ium (2R,3R)-2-(3,4-dihydroxy-5-oxidophenyl)-3,5-dihydroxy-4-oxochroman-7-olate [D-P]
TG-mice [1]
  Object Recognition Index (ORI): 70.1±6.8%
TG-mice [2]
  time in open and closed arms (EPM): spent a similar amount of time in each arm
gephyrin; 1 month
  gephyrin levels: partly recovered
gephyrin; 3 months
  gephyrin levels: restored to control levels
